Tests used:
Format in all cases: functional, cell-based
[1] = tested on: A549; test: Cytotoxicity against human A549 cells by WST-8 assay
[2] = tested on: HCT-116; test: Cytotoxicity against human HCT116 cells by WST-8 assay
[3] = tested on: HeLa; test: Cytotoxicity against human HeLa cells by WST-8 assay

| Structure (SMILES) | IC50 [1] | IC50 [2] | IC50 [3] |
| --- | --- | --- | --- |
| COc1c(C(CO)C(C)C)ccc2c1C(=O)OCc1cc(C)cc(O)c1O2 (configuration not stated) | 36.1 µM | 18.5 µM | 14.7 µM |
| COc1cccc2c1C(=O)c1c(O)c3c(c(O)c1C2=O)C[C@@](O)(C(=O)CO)C[C@@H]3O[C@H]1C[C@H](N)[C@H](O)[C@H](C)O1 [DOXORUBICIN] |  | 2.38 µM | 8.96 µM |
| COc1c(/C=C/C(C)(CO)OC)ccc2c1C(=O)OCc1cc(C)cc(O)c1O2 (configuration not stated) | 2.14 µM | 2.66 µM | 1.19 µM |
| COC1=CC(=O)OC(CO)C1 (configuration not stated) | 47.8 µM | 24.4 µM | 15.6 µM |
| C=C(C)C(O)Cc1ccc2c(c1OC)C(=O)OCc1cc(C)cc(O)c1O2 (configuration not stated) | 44.9 µM | 22.7 µM | 12.8 µM |
| C=C(C)C(CO)c1ccc2c(c1OC)C(=O)OCc1cc(C)cc(O)c1O2 (configuration not stated) | 31.3 µM | 15.7 µM | 18.9 µM |

From ChEMBL document CHEMBL4184086, “Sinopestalotiollides A-D, cytotoxic diphenyl ether derivatives from plant endophytic fungus Pestalotiopsis palmarum” (Bioorg Med Chem Lett, 2018)
